PMC8777765, “Identification of Cyclic Sulfonamides with an N-Arylacetamide Group as α-Glucosidase and α-Amylase Inhibitors: Biological Evaluation and Molecular Modeling” (Pharmaceuticals, 2022)

What was measured:
[1] = target: yeast α-glucosidase enzyme; assay: in vitro α-glucosidase inhibition (PNPG substrate); assay type: biochemical, Saccharomyces cerevisiae; settings: for IC50: PNPG substrate
Method: α-Glucosidase inhibitions were determined following a modified spectroscopic method [87]. A solution of α-glucosidase (obtained from Saccharomyces cerevisiae (Sigma-Aldrich, Munich, Germany)) was prepared in phosphate buffer (pH 6.8, 100 mM). Wells of the 96-well microliter plates were filled with test sample solutions (12.5 μL) prepared in DMSO. After this, enzyme (0.5 U/mL, 40 μL) and then phosphate buffer (100 mM, 120 μL) were also mixed with the test sample solutions. Incubation at 37 °C for 5 min and then addition of 40 μL of the substrate, p-nitrophenyl-α-D-glucopyranoside (PNPG) (5 nM, Sigma-Aldrich, Munich, Germany), was performed. Mixtures were again incubated for 30 min, and absorbance was measured at 405 nm and 37 °C for the released 4-nitrophenol in each mixture. […] Each experiment was carried out thrice, and percentage inhibitions were determined with the help of following expression, followed by the determination of IC50 values. % Inhibition = [(Acontrol − Asample)/Acontrol] × 100 where A is absorbance.

[2] = target: T1, Aspergillus oryzae α-amylase (Aspergillus oryzae, UniProt P0C1B3); assay: in vitro α-amylase inhibition (starch substrate, DNSA); assay type: biochemical
T1 construct: purchased Sigma-Aldrich, Munich, Germany
Method: A total of 40 µL of each test sample was pipetted out in 96-well microliter plates. This was mixed with 40 µL of Aspergillus oryzae α-amylase (Sigma-Aldrich, Munich, Germany) solution (prepared in Na2SO4 buffer (0.02 M, pH = 6.9)). Incubation of solutions was executed at 37 °C for 10 min. After incubation, 40 µL of starch solution prepared in 1% DMSO was added into each well as a substrate and placed at 25 °C for 10 min. After this, 100 µL of 3,5-dinitrosalicylic acid (DNSA) was added and incubated for 5 min in boiling water. After cooling and dilution of mixtures with distilled water (400 μL), the absorbance was recorded at 540 nm wavelength [91] and 37 °C temperature with the help of a microplate reader. […] Each experiment was carried out thrice, and percentage inhibitions were determined with the help of following expression, followed by the determination of IC50 values. % Inhibition = [(Acontrol − Asample)/Acontrol] × 100 where A is absorbance.

[3] = tested on: severe acute respiratory syndrome coronavirus 2 (SARS-CoV-2); design: method as in PMID 33160024; settings: cited from earlier work
[4] = target: human 11β-hydroxysteroid dehydrogenase type 1 (11β-HSD1); design: method as in PMID 21212546; settings: cited from earlier work
[5] = target: α-glucosidase; design: method as in PMID 32024621; settings: read-out: α-glucosidase IC50 (literature); cited from earlier work
[6] = target: aldose reductase; design: method as in PMID 22036211; settings: cited from earlier work
[7] = target: T2, α-amylase (Aspergillus oryzae, UniProt P0C1B3); assay: enzyme inhibition kinetics (Lineweaver–Burk), α-amylase; assay type: biochemical; settings: secondary plots; starch 0.25–2%; read-out: Ki (inhibition constant), α-amylase
T2 construct: purchased Sigma-Aldrich, Munich, Germany
From the text: (§1) The pattern of the Lineweaver–Burk plot can visualize the type of inhibition, as shown in Figure 6A−F. […] Secondary plots were drawn to determine the value of the inhibition constant Ki and the dissociation constant Ki’. Smaller Ki implies higher enzyme inhibition, implying the possibility of an allosteric binding site in the enzyme, to which synthetic drugs could bind.
(§2) The Lineweaver–Burk equation was used to determine the type of inhibition. α-Glucosidase and α-amylase activities were studied in the absence and presence of various sample concentrations (0.1 mM, 0.25 mM, 0.5 mM, 0.75 mM and 1.0 mM). For α-glucosidase inhibition kinetics, PNPG was used as a substrate, with different concentrations (1 mM, 3 mM, 5 mM, 7 mM and 9 mM). In α-amylase inhibition kinetics, various amounts of starch solution (0.25–2%) were tested. All experiments were carried out in triplicate, and the outcomes were written as mean ± S.D.

[8] = target: α-glucosidase; assay: enzyme inhibition kinetics (Lineweaver–Burk), α-glucosidase; assay type: biochemical, Saccharomyces cerevisiae; settings: secondary plots; PNPG 1–9 mM; read-out: Ki (inhibition constant), α-glucosidase
From the text: as §1, §2

| SMILES | IC50 [1] [µM] | melting point [°C] | IC50 [2] [µM] | α-glucosidase inhibition (in words) [1] | further results |
| --- | --- | --- | --- | --- | --- |
| COc1cccc(C(=O)C2=C(O)c3ccccc3S(=O)(=O)N2CC(=O)Nc2cccc(Br)c2)c1 [Compound 12h, N-(3-Bromophenyl)-2-(4-hydroxy-3-(3-methoxybenzoyl)-1,1-dioxido-2H-benzo[e][1,2]thiazin-2-yl)acetamide] | 86.2 | 132 to 133 | 110 | – | – |
| COc1ccc(NC(=O)CN2C(C(=O)c3cccc(OC)c3)=C(O)c3ccccc3S2(=O)=O)cc1 [Compound 12m, 2-(4-Hydroxy-3-(3-methoxybenzoyl)-1,1-dioxido-2H-benzo[e][1,2]thiazin-2-yl)-N-(4-methoxyphenyl)acetamide] | – | 201 to 202 | 122 | failed to show any remarkable inhibition | – |
| COc1cccc(C(=O)C2=C(O)c3ccccc3S(=O)(=O)N2CC(=O)Nc2ccccc2[N+](=O)[O-])c1 [Compound 12d, 2-(4-Hydroxy-3-(3-methoxybenzoyl)-1,1-dioxido-2H-benzo[e][1,2]thiazin-2-yl)-N-(2-nitrophenyl)acetamide] | 102 | – | 15.1 | failed to show any remarkable inhibition | – |
| O=C(CN1C(C(=O)Nc2ccc(F)c(Cl)c2)=C(O)c2ccc(F)cc2S1(=O)=O)Nc1ccc(C(F)(F)F)cc1 [Compound 4] | – | – | – | – | IC50 [3]: 0.88 µM |
| COc1cccc(C(=O)C2=C(O)c3ccccc3S(=O)(=O)N2CC(=O)Nc2ccc(Cl)cc2)c1 [Compound 12c, N-(4-Chlorophenyl)-2-(4-hydroxy-3-(3-methoxybenzoyl)-1,1-dioxido-2H-benzo[e][1,2]thiazin-2-yl)acetamide] | 40.8 | 146 to 147 | 125 | – | – |
| COc1cccc(C(=O)C2=C(O)c3ccccc3S(=O)(=O)N2CC(=O)Nc2cccc(Cl)c2)c1 [Compound 12b, N-(3-Chlorophenyl)-2-(4-hydroxy-3-(3-methoxybenzoyl)-1,1-dioxido-2H-benzo[e][1,2]thiazin-2-yl)acetamide] | – | – | – | failed to show any remarkable inhibition | – |
| COc1cccc(C(=O)C2=C(O)c3ccccc3S(=O)(=O)N2CC(=O)Nc2cccc(C)c2)c1 [Compound 12k, 2-(4-Hydroxy-3-(3-methoxybenzoyl)-1,1-dioxido-2H-benzo[e][1,2]thiazin-2-yl)-N-(m-tolyl)acetamide] | 30.4 | 150 to 151 | 67.2 | – | – |
| COc1cccc(C(=O)C2=C(O)c3ccccc3S(=O)(=O)N2CC(=O)Nc2ccccc2C)c1 [Compound 12j, 2-(4-Hydroxy-3-(3-methoxybenzoyl)-1,1-dioxido-2H-benzo[e][1,2]thiazin-2-yl)-N-(o-tolyl)acetamide] | – | 166 | – | failed to show any remarkable inhibition | – |
| O=C(CN1C(C(=O)Nc2ccccc2)=C(O)c2ccccc2S1(=O)=O)Nc1cccc(C(F)(F)F)c1 [Compound 3] | – | – | – | – | IC50 [4]: 0.041 µM |
| C/C(=N\NC(=O)C1=C(O)c2ccccc2S(=O)(=O)N1C)c1ccccc1 [Compound 7] | – | – | – | – | IC50 [5]: 4.2 µM |
| COc1cccc(C(=O)C2=C(O)c3ccccc3S(=O)(=O)N2CC(=O)Nc2ccccc2Br)c1 [Compound 12g, N-(2-Bromophenyl)-2-(4-hydroxy-3-(3-methoxybenzoyl)-1,1-dioxido-2H-benzo[e][1,2]thiazin-2-yl)acetamide] | 35.1 | 169 to 171 | 11.7 | – | – |
| O=C(O)/C=C1\CN(Cc2ccc(Br)cc2F)S(=O)(=O)c2ccccc21 [Compound 5] | – | – | – | – | IC50 [6]: 0.11 µM |
| COc1cccc(C(=O)C2=C(O)c3ccccc3S(=O)(=O)N2CC(=O)Nc2ccc(Br)cc2)c1 [Compound 12i, N-(4-Bromophenyl)-2-(4-hydroxy-3-(3-methoxybenzoyl)-1,1-dioxido-2H-benzo[e][1,2]thiazin-2-yl)acetamide] | 25.9 | – | 7.52 | – | Ki [7]: 70.4 µM; Ki [8]: 100 µM |
| C/C(=N\NC(=O)C1=C(O)c2ccccc2S(=O)(=O)N1)c1ccccc1 [Compound 6] | – | – | – | – | IC50 [5]: 3.9 µM |
| COc1cccc(C(=O)C2=C(O)c3ccccc3S(=O)(=O)N2)c1 [Compound 11, (4-Hydroxy-1,1-dioxido-2H-benzo[e][1,2]thiazin-3-yl)(3-methoxyphenyl)methanone] | – | – | 147 | failed to show any remarkable inhibition | – |
| COc1cccc(C(=O)C2=C(O)c3ccccc3S(=O)(=O)N2CC(=O)Nc2ccc([N+](=O)[O-])cc2)c1 [Compound 12f, 2-(4-Hydroxy-3-(3-methoxybenzoyl)-1,1-dioxido-2H-benzo[e][1,2]thiazin-2-yl)-N-(4-nitrophenyl)acetamide] | 97 | 176 to 177 | 29 | – | – |
| COc1cccc(C(=O)C2=C(O)c3ccccc3S(=O)(=O)N2CC(=O)Nc2ccccc2Cl)c1 [Compound 12a, N-(2-Chlorophenyl)-2-(4-hydroxy-3-(3-methoxybenzoyl)-1,1-dioxido-2H-benzo[e][1,2]thiazin-2-yl)acetamide] | 46.2 | 186 to 187 | 13.3 | – | – |
| COc1cccc(C(=O)C2=C(O)c3ccccc3S(=O)(=O)N2CC(=O)Nc2cccc([N+](=O)[O-])c2)c1 [Compound 12e, 2-(4-Hydroxy-3-(3-methoxybenzoyl)-1,1-dioxido-2H-benzo[e][1,2]thiazin-2-yl)-N-(3-nitrophenyl)acetamide] | – | 189 to 190 | 37.5 | failed to show any remarkable inhibition | – |
| COc1cccc(C(=O)C2=C(O)c3ccccc3S(=O)(=O)N2CC(=O)Nc2ccccc2OC)c1 [Compound 12l, 2-(4-Hydroxy-3-(3-methoxybenzoyl)-1,1-dioxido-2H-benzo[e][1,2]thiazin-2-yl)-N-(2-methoxyphenyl)acetamide] | 110 | – | – | failed to show any remarkable inhibition | – |
